Reference: US20230181905A1, “Systems, Devices, and Methods for Enhancing the Neuroprotective Effects of Non-Invasive Gamma Stimulation with Pharmacological Agents” (Massachusetts Institute of Technology, priority 2021, published 2023)

Assays:
Format in all cases: in vivo, mouse
[1] = test system: GFAP+ astrocytes; test: GFAP+ astrocyte immunohistochemistry; settings: 5×FAD mice; Plx3397 diet 50 days vs control
Protocol: (§1) To study how CSF1R-sensitive microglia impact neural activity in the context of AD, an amyloidosis mouse model, the 5×FAD mice—which is a most commonly used mouse model for AD, was subject to a diet containing CSF1R inhibitor Plx3397 for 50 days (FIG. 21A). The CSF1R inhibitor Plx3397 (600 ppm) was employed, which was previously shown to effectively reduce microglia in vivo. Control mice were age-matched 5×FAD litters that received a regular diet. Electrophysiological recordings were performed using linear probes. Post-recording, the recording site in the visual cortex was verified by histology (FIG. 21), and microglia reduction was evaluated by assessing IBA1+ cell numbers.
Antibodies: IBA1 (Synaptic Systems, Cat #234 004, dilution-1:500; Wako Chemicals, Cat #019-19741, dilution-1:500), GFAP (Thermo Fisher Scientific, Cat #130300, dilution-1:500), MEF2C (Cell Signaling Technology, Cat #5030T), MAC2 (Cedarlane Labs, Cat #CL8942AP, dilution-1:500), vGAT (Synaptic Systems, Cat #131 013, dilution-1:500), vGLUT (Synaptic Systems, Cat #1135 302, dilution-1:500), NeuN (Synaptic Systems, Cat #266 004, dilution-1:1000), MHC2 (EMD Millipore, Cat #MABF33, dilution-1:500), C1q (Abcam, Cat #ab182451, dilution-1:500), synaptophysin (Sigma, Cat #S5768). […]

[2] = test system: CSF1R resistant progenitor-like MAC2+ microglia; test: MAC2+ microglia immunohistochemistry; settings: 5×FAD mice; Plx3397 diet 50 days vs control
Protocol: as §1
Microglia: Iba1 immunoreactive cells were considered microglia. Using an LSM 710 or LSM 880 with a 10× (for Iba1+ cell counts) or 40× (for morphological analysis) objective z stacks of the entire slice thickness […] with […] step size were acquired. Imaris was used for 3D rendering of images to quantify the total volume of microglia. MAC2+ cells were counted manually using Image J.

[3] = test system: IBA1+ microglia; test: Iba1+ microglia counts in APOE4-KI 5×FAD hippocampus
Protocol: Hippocampal mouse brain sections were stained for Iba1, a microglia/macrophage specific marker, and cell numbers were counted. […] Next, 7-8 month old male APOE4-KI 5×FAD animals were treated with 3 weeks of PLX3397 diet (or control), followed by 21 days of A+V GENUS, during which animals remained on their diets (FIG. 37).

[4] = test system: amyloid plaques (D54D2); test: D54D2 amyloid plaque staining in APOE4-KI 5×FAD hippocampus; settings: APOE4-KI 5×FAD mice, PLX3397 diet combined with 21 days A+V GENUS
Protocol: Given that APOE4+ individuals accumulate A #earlier than non-carriers, and that APOE facilitates the response of microglia to amyloid, GENUS outcomes in an APOE4-KI amyloid model were examined. To this end, 21d A+V (audio and visual) GENUS in APOE-KI 5×FAD model was performed and amyloid and microglial outcomes were examined.
Next, 7-8 month old male APOE4-KI 5×FAD animals were treated with 3 weeks of PLX3397 diet (or control), followed by 21 days of A+V GENUS, during which animals remained on their diets (FIG. 37).

[5] = test system: CK-p25 mice; test: Novel object recognition test in CK-p25 mice
Protocol: Given the neuroprotective effect of Plx3397+GENUS treatment, whether this treatment also impacted learning and memory was evaluated. Mice were tested in an open field (OF) and assessed for changes in anxiety and activity levels, followed by a novel object recognition (NOR) test of memory. 10-month-1d 5×FAD mice were treated with Plx3397. Following 20 days administration of Plx3397 chow, untreated- and Plx3397 treated 5×FAD mice (which continued PLX administration) were subjected to 30 days of daily GENUS. Mice were tested in OF and NOR during the last week of these treatments. […] Next, CK-p25 mice were treated for 42 days and assessed behavioral performance.
For OF, mice were introduced into an open field box (dimensions: length=460 mm, width=460 mm and height=400 mm; TSE-Systems) and were tracked using Noldus (Ethovision) for 12 min, with time spent in the center and peripheral area of the arena measured. […] Mouse behavior was monitored for 7 min. Time spent exploring both the familiar and novel objects was recorded using Noldus and computed offline. Percentage of novelty preference index was calculated as follows: time exploring novel object (Nt) divided by total time exploring novel and familiar (Ft) objects and presented in %−{[Nt/Nt+Ft]*100}. […]

FC(F)(F)c1ccc(CNc2ccc(Cc3c[nH]c4ncc(Cl)cc34)cn2)cn1 [Plx3397, Pexidartinib]
GFAP+ astrocytes [1]: no difference
CSF1R resistant progenitor-like MAC2+ microglia [2]: no difference
microglia numbers (Iba1+ cell counts), GENUS vs no GENUS after depletion ([3]; APOE4-KI 5×FAD mice on PLX3397 diet): not further modified
microglia numbers ([3]; male APOE4-KI 5×FAD mice, hippocampus, PLX3397 diet vs standard diet): significant reduction
amyloid plaque number ([4]; hippocampus CA1): significant reduction
amyloid total area [4]: significant reduction
amyloid staining mean intensity ([4]; vs standard diet): significant reduction
novel object recognition memory in the NOR test ([5]; CK-p25 mice treated for 42 days): significantly improved
novel object recognition memory in the NOR test (novelty index) ([5]; CK-p25 mice, control 54.82±3.70): 70.52±2.89
